Patent publication US5700789A, “Antiallergic composition comprising a phosphoric diester compound” (Senju Pharmaceutical Co., Ltd., priority 1995, dated 1997)
Counter-ions that a name gives are not always drawn.

Tests used:
[1] = test system: palpebral edema induced by the histamine releaser Compound 48/80; assay: Palpebral edema induced by the histamine releaser Compound 48/80 in rats (topical instillation); format: in vivo, rat (male SD); conditions: 5 μl/eye of 0.1% test material; for Inhibition rate: edema inhibition rate with respect to the control group, 4 hr after Compound 48/80; for Edema weight: male SD rats, 6 instillations, wet weight 4 hr after Compound 48/80, * p<0.001 vs control
Description: The effect of the compound of the invention on the palpebral edema induced by the histamine releaser Compound 48/80 (the condensation product of N-methyl-p-methoxy-phenethylamine with formaldehyde) (Sigma Chemical Company) was evaluated.
(1) 0.1% L-ascorbyl DL-α-tocopheryl phosphate sodium (Abbreviation: EPC-Na) (dissolved in physiological saline and adjusted to pH 7.0)
(2) 0.1% diphenhydramine hydrochloride (an antihistaminic) (dissolved in physiological saline)
Method: Male SD rats weighing about 180 g were used.
The rats were divided into three groups, i.e. a control group, an EPC-Na group, and a diphenhydramine HCl group, and 20 μl/eye of 0.008% Compound 48/80 (dissolved in physiological saline) was injected subconjunctivally at both lids to induce palpebral edema. Two (2), 1, and 0.5 hr before subconjunctival injection and 0.5, 1.5, and 2.5 hr after the injection, rats in the control group were topically treated with 5 μl/eye of physiological saline and those in the EPC-Na group and diphenhydramine HCl group were similarly treated with 5 μl/eye of the corresponding test materials. Four (4) hr after injection of Compound 48/80 (1.5 hr after the last instillation), the rats were sacrificed and the edematous portion of the palpebra was excised, its wet weight (mg) was determined, and the edema inhibition rate (%) with respect to the control group was calculated.

[2] = test system: Type III allergic conjunctivitis; assay: Type III allergic conjunctivitis in rats (rat antirabbit serum injected subconjunctivally); format: in vivo; conditions: 5 μl/eye, 6 instillations, 0.1% EPC-Na or 0.1% as dexamethasone, wet weight 0.5 hr after last instillation, mean ± S.D. (n = 4), * p<0.001 vs control
Description: The effect of the compound of the invention on Type III allergic conjunctivitis was evaluated.
(1) 0.1% EPC-Na (dissolved in physiological saline)
(2) 0.15% dexamethasone sodium metasulfobenzoate
(Visualin Ophthalmic Solution (registered trademark, Senju Pharmaceutical Co. Ltd.) (0.1% as dexamethasone, hereinafter referred to briefly as dexamethasone)
The rats were divided into three groups, namely a control group, an EPC-Na group and a dexamethasone group, and 30 μl of rat antirabbit serum was injected subconjunctivally at both lids. Two (2), 1.5, and 0.5 hr before subconjunctival injection and 0.5, 1.5, and 2.5 hr after the injection, rats in the control group were topically treated with 5 μl/eye of physiological saline and those in the test groups were similarly treated with 5 μl/eye of the respective test materials. At 0.5 hr after the last instillation, the rats were sacrificed, the edema weight (wet weight/mg) was determined, and the inhibition rate (%) with respect to the control group was calculated.

[3] = Acute toxicity (LD50) in rats; conditions: rat, in vivo, iv; i.v. (rats)

SMILES	Inhibition rate [1] [%]	Edema weight [1] [mg]	Edema weight [2] [mg]	LD50 [3] [mg/kg]
CN(C)CCOC(c1ccccc1)c1ccccc1 [Diphenhydramine HCl, diphenhydramine hydrochloride, reference compound]	44.8	63.2 ± 8.2	–	–
C[C@@H]1C[C@H]2[C@@H]3CCC4=CC(=O)C=C[C@]4(C)[C@@]3(F)[C@@H](O)C[C@]2(C)[C@@]1(O)C(=O)COC(=O)c1cccc(S(=O)(=O)O)c1 [Dexamethasone, dexamethasone sodium metasulfobenzoate, reference compound]	–	–	58.2 ± 3.8	–
Cc1c(C)c2c(c(C)c1OP(=O)(O)OC1=C(O)[C@@H]([C@@H](O)CO)OC1=O)CCC(C)(CCCC(C)CCCC(C)CCCC(C)C)O2 (mixture of isomers) [EPC-Na, L-ascorbyl DL-α-tocopheryl phosphate sodium]	33.5	76.1 ± 11.6	57.4 ± 8.1	–
Cc1c(C)c2c(c(C)c1OP(=O)(O)OC1=C(O)[C@@H]([C@@H](O)CO)OC1=O)CCC(C)(CCCC(C)CCCC(C)CCCC(C)C)O2 (mixture of isomers) [EPC-K, L-ascorbyl DL-α-tocopheryl phosphate potassium]	–	–	–	≥ 100
